Values of other authors as cited in patent US9346789B2, “Combinations of AKT inhibitor compounds and abiraterone, and methods of use” (Genentech, Inc., priority 2011, dated 2016).

Biological target: T1, topoisomerase I (Homo sapiens, UniProt P11387)
T1 sequence (P11387 1-765): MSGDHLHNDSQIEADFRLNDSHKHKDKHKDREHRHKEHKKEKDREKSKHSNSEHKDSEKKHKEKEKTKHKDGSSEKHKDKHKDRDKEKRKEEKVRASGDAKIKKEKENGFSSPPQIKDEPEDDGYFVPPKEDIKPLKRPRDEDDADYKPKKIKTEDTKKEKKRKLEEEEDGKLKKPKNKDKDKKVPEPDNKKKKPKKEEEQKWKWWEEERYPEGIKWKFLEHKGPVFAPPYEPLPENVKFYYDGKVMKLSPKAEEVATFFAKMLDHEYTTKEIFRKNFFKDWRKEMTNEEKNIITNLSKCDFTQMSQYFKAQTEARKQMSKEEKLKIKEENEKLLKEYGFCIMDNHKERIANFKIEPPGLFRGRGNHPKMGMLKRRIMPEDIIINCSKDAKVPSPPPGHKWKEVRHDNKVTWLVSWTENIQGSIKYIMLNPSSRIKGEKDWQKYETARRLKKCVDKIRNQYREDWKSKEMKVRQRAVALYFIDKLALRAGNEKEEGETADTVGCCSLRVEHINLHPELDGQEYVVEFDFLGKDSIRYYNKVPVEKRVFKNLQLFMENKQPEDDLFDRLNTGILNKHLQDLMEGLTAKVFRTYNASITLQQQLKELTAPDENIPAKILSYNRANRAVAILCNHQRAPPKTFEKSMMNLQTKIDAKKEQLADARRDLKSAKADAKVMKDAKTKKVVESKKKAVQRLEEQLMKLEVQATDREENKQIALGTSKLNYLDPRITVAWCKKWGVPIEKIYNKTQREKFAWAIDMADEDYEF
Conditions: active metabolite versus irinotecan itself

## CCc1c2c(nc3ccc(O)cc13)-c1cc3c(c(=O)n1C2)COC(=O)[C@]3(O)CC [SN-38, 7-ethyl-10-hydroxy-camptothecin]
  activity relative to irinotecan: 200 times
